{"source": "patent US8999365B2", "about": "“Prevention of bacterial contamination” (priority 2005, dated 2015)", "key": {"[1]": {"tested_on": "Staphylococcus epidermidis", "assay": "Growth of adherent bacteria on treated surfaces in Tryptic Yeast Extract medium", "assay_type": "cell-based", "details": "for Growth after 1 day / Growth after 5 days: cell culture IV, Tryptic Yeast Extract medium, 37° C.", "procedure": "The ability of bacteria to grow on coated and non-coated surfaces was determined by adding 4 mL of Tryptic Yeast Extract medium to each well and incubating at 37° C."}, "[2]": {"assay": "Physicochemical properties of delmopinol (pKa, solubility of base)"}, "[3]": {"tested_on": "Staphylococcus epidermidis", "quoted_text": "(§1) Procedure A: The test surfaces were treated with 2 mL of the 2% aqueous solution of delmopinol HCl and left unstirred for 15 minutes at room temperature. All delmopinol solution was removed with a pipette. The wells were then thoroughly rinsed three times with 4 mL of a potassium phosphate buffer, 10 mM, pH 7.2. […] Procedure B: The test surfaces were treated with 2 mL of the 2% aqueous solution of delmopinol HCl and left overnight to dry. Microorganisms\n(§2) A fresh bacterial strain of Staphylococcus epidermidis was isolated from skin and stored in milk powder at −80° C. The day before experimental use, bacteria were transferred to blood agar and incubated in an atmosphere of 95% H2 and 5% CO2 at 37° C. overnight. Colony-forming units were collected from the blood agar and suspended in 10 mM potassium phosphate buffer, pH 7.2, to an optical density at 600 nm of 0.4, corresponding to approximately 10^8 cells/mL.\nThe bacterial viability of the bacterial suspension, indicated by the vitality percentages, was assessed by fluorescence microscopy using the Live/Dead Bacterial Viability method Molecular Probes, Inc. Eugene, Oreg., USA) according to the instructions of the manufacturer. Thus, SYTO 9 (1.5 μL) and propidium iodide (1.5 μL) were mixed with 1 mL of 10 mM phosphate buffer, pH 7.2. Aliquots of 10 μL were added to 10 μL cell suspension and analysed at 1000× for green/LIVE and red/DEAD cells in the fluorescence microscope (Leitz Aristoplan microscope equipped with a halogen lamp and a 470-490 nm excitation filter).\nFour mL of the bacterial suspension was added on top of coated and non-coated test surfaces mounted in Petri dishes. The cells were allowed to adhere for 60 min at 37° C. Non-adherent cells were removed by rinsing the surfaces three times with 4 mL of the buffer solution. […] A 10 μL-aliquot of the mixture was added to the surface and analysed after 10 min incubation in the dark. Microscopic images of adherent cells were analysed from 10 fields of each disc. […]"}, "[4]": {"tested_on": "Staphylococcus epidermidis", "assay": "Adhesion assay: total attached cells on delmopinol-coated discs", "details": "mean of Exp. I-III", "quoted_text": "The different materials were obtained as discs with an approximate diameter of 30 mm and a thickness of 1 mm. These discs were then mounted in the bottom of Petri dishes\nas §1, §2\nFour mL of the bacterial suspension was added on top of coated and non-coated test surfaces mounted in Petri dishes. […] A 10 μL-aliquot of the mixture was added to the surface and analysed after 10 min incubation in the dark. Microscopic images of adherent cells were analysed from 10 fields of each disc. […]"}, "[5]": {"details": "coated versus non-coated surfaces"}}}
{"smiles": "CCCC(CCC)CCCC1COCCN1CCO", "note": "(stereo not shown) [delmopinol, 3-(4-propyl-heptyl)-4-(2-hydroxyethyl) morpholine]", "values": [{"measurement": "growth of surface-associated bacteria (conclusion)", "setting": "[1]; [5]", "result": "significantly inhibited growth"}, {"measurement": "Growth after 1 day", "setting": "[1]; stainless steel coated", "result": "no"}, {"measurement": "Growth after 5 days", "setting": "[1]; stainless steel coated", "result": "no"}, {"measurement": "Growth after 1 day", "setting": "[1]; titanium coated", "result": "no"}, {"measurement": "Growth after 5 days", "setting": "[1]; titanium coated", "result": "no"}, {"measurement": "pKa", "setting": "[2]", "result": 7.1}, {"measurement": "percentage viable cells, Mean", "setting": "[3]", "result": 9, "unit": "percentage"}, {"measurement": "viability of adherent cells on delmopinol-coated surfaces (conclusion)", "setting": "[3]; [5]", "result": "significant reduction"}, {"measurement": "number of attached cells per mm^2, Mean", "setting": "[4]; stainless steel coated with 2% delmopinol HCl", "result": 418, "unit": "cells per mm^2"}, {"measurement": "number of attached cells per mm^2, Mean", "setting": "[4]; titanium coated with 2% delmopinol HCl", "result": 207, "unit": "cells per mm^2"}]}
